target: T1, rat mGluR5 receptors (Rattus norvegicus, UniProt P31424); test: mGluR5 receptor binding test, rat cerebro-cortical membrane preparation, [3H]-M-MPEP; settings: affinity for rat mGluR5 receptors; [3H]-M-MPEP (2 nM) radioligand
T1 construct: rat cerebro-cortical membrane preparation was used; from tissue; host or cells: rat cerebral cortex membranes
Procedure: The mGluR5 receptor binding was determined according to the modified method of Gasparini et. al. (Bioorg. Med. Chem. Lett., 2000, 12, 407). Based on the high homology between the human and rat mGluR5 receptors, rat cerebro-cortical membrane preparation was used to determine the binding characteristics of the reference compounds and novel compounds to the rat mGluR5. The A18 cell line expressing hmGluR5a (purchased from Euroscreen) was used to determine binding characteristics of the chemical compounds to the human mGluR5a receptor. [^3H]-M-MPEP (2 nM) was used as radioligand. The nonspecific binding was determined in the presence of 10 μM M-MPEP.

T1 sequence (P31424 21-1203): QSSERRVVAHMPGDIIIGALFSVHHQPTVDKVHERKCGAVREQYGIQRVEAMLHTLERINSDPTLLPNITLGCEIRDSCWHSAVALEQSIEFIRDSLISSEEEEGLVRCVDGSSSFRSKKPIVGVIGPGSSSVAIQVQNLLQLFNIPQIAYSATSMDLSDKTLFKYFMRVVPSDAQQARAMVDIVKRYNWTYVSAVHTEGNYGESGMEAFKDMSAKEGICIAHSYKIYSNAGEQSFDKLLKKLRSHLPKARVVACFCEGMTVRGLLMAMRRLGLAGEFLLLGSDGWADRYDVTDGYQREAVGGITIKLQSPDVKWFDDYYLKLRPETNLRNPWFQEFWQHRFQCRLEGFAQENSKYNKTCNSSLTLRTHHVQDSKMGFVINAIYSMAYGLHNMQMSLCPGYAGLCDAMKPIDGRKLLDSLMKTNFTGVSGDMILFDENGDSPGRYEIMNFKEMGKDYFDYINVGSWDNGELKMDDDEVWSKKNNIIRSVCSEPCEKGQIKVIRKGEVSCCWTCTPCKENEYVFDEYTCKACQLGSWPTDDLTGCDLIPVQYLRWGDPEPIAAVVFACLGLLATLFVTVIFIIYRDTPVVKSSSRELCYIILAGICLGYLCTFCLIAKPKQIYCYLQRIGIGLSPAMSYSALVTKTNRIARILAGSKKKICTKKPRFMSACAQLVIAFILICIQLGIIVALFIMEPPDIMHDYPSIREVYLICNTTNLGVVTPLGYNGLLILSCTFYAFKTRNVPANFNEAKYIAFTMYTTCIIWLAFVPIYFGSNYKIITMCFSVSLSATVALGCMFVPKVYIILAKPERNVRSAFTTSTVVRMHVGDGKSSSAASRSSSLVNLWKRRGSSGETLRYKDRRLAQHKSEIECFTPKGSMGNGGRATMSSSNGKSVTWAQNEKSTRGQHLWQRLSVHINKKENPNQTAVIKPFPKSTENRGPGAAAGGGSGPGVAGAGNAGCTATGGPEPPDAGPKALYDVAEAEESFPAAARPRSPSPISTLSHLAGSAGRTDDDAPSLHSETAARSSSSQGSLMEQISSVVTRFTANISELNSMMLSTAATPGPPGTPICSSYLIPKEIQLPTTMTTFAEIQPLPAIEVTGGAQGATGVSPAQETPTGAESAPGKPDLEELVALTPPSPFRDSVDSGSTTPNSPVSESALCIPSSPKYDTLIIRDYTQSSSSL

| Ki | SMILES |
| --- | --- |
| > 500 nM | Cc1ccc(S(=O)(=O)c2cnc3ccc(Cl)cc3c2N2CCOCC2)cc1C [Compound 38] |
| > 500 nM | Cc1ccc2ncc(S(=O)(=O)c3ccc(Cl)cc3)c(N3CCOCC3)c2c1 [Compound 39] |
| > 500 nM | O=S(=O)(c1ccc(Cl)cc1)c1cnc2ccccc2c1N1CCOCC1 [Compound 40] |
| > 500 nM | Cc1ccc(S(=O)(=O)c2cnc3ccc(C)cc3c2N2CCCCC2)cc1 [Compound 41] |
| > 500 nM | Cc1ccc(S(=O)(=O)c2cnc3cc4c(cc3c2N2CCCCC2)OCCO4)cc1 [Compound 42] |
| > 500 nM | O=S(=O)(c1ccc(Cl)cc1)c1cnc2ccccc2c1N1CCCCC1 [Compound 43] |
| > 500 nM | COc1ccc(S(=O)(=O)c2cnc3ccc(OC)cc3c2N2CCCCC2)cc1 [Compound 44] |
| > 500 nM | CCc1ccc2ncc(S(=O)(=O)c3ccccc3)c(N3CCCCC3)c2c1 [Compound 45] |
| < 200 nM | Cc1ccc(S(=O)(=O)c2cnc3ccc(C)cc3c2N2CCC(C)CC2)cc1 [Compound 46] |
| < 200 nM | CC1CCN(c2c(S(=O)(=O)c3ccccc3)cnc3ccccc23)CC1 [Compound 47] |
| < 200 nM | CC1CCN(c2c(S(=O)(=O)c3ccccc3)cnc3cc4c(cc23)OCCO4)CC1 [Compound 48] |
| > 500 nM | Cc1ccc2ncc(S(=O)(=O)c3ccccc3)c(N3CCC(C)CC3)c2c1 [Compound 49] |
| > 500 nM | COc1ccc2ncc(S(=O)(=O)c3ccc(C)cc3)c(N3CCC(C)CC3)c2c1 [Compound 50] |
| < 200 nM | CCc1ccc2ncc(S(=O)(=O)c3ccc(OC)cc3)c(N3CCC(C)CC3)c2c1 [Compound 51] |
| > 500 nM | CCOC(=O)C1CCN(c2c(S(=O)(=O)c3ccc(C)cc3)cnc3ccc(CC)cc23)CC1 [Compound 52] |
| < 200 nM | CCOC(=O)C1CCN(c2c(S(=O)(=O)c3ccc(Cl)cc3)cnc3ccc(CC)cc23)CC1 [Compound 53] |
| > 500 nM | CCOC(=O)C1CCN(c2c(S(=O)(=O)c3ccc(C)cc3)cnc3ccccc23)CC1 [Compound 54] |
| > 500 nM | CCOC(=O)C1CCN(c2c(S(=O)(=O)c3ccc(C)cc3)cnc3ccc(F)cc23)CC1 [Compound 55] |
| > 500 nM | CCOC(=O)C1CCCN(c2c(S(=O)(=O)c3ccc(C)cc3)cnc3ccccc23)C1 (stereo not drawn) [Compound 56] |
| > 500 nM | CCOC(=O)C1CCCN(c2c(S(=O)(=O)c3ccccc3)cnc3ccc(CC)cc23)C1 (stereo not drawn) [Compound 57] |
| > 500 nM | CCOC(=O)C1CCCN(c2c(S(=O)(=O)c3ccc(C)cc3)cnc3ccc(OC)cc23)C1 (stereo not drawn) [Compound 58] |

| Ki | SMILES |
| --- | --- |
| > 500 nM | Cc1ccc(S(=O)(=O)c2cnc3ccc(C)cc3c2N2CCC(C(N)=O)CC2)cc1 [Compound 59] |
| > 500 nM | O=S(=O)(c1ccccc1)c1cnc2ccccc2c1N1CCC2(CC1)OCCO2 [Compound 60] |
| > 500 nM | CN1CCN(c2c(S(=O)(=O)c3ccc(Cl)cc3)cnc3ccccc23)CC1 [Compound 61] |
| > 500 nM | CCN1CCN(c2c(S(=O)(=O)c3ccc(Cl)cc3)cnc3ccc(C)cc23)CC1 [Compound 62] |
| > 500 nM | CCc1ccc2ncc(S(=O)(=O)c3ccccc3)c(N3CCN(CC)CC3)c2c1 [Compound 63] |
| > 500 nM | O=S(=O)(c1ccccc1)c1cnc2ccccc2c1N1CCN(Cc2ccccc2)CC1 [Compound 64] |
| > 500 nM | Cc1ccc(S(=O)(=O)c2cnc3ccc(C)cc3c2N2CCN(Cc3ccccc3)CC2)cc1 [Compound 65] |
| > 500 nM | CCc1ccc2ncc(S(=O)(=O)c3ccccc3)c(N3CCN(Cc4ccccc4)CC3)c2c1 [Compound 66] |
| > 500 nM | Cc1ccc(S(=O)(=O)c2cnc3ccc(F)cc3c2N2CCN(c3ccccc3)CC2)cc1 [Compound 67] |
| > 500 nM | Cc1ccc(N2CCN(c3c(S(=O)(=O)c4ccccc4)cnc4ccc(F)cc34)CC2)c(C)c1 [Compound 68] |
| > 500 nM | COc1ccc2ncc(S(=O)(=O)c3ccccc3)c(N3CCN(c4cccc(C)c4C)CC3)c2c1 [Compound 69] |
| > 500 nM | Cc1ccc(S(=O)(=O)c2cnc3ccccc3c2N2CCN(c3cc(C)ccc3C)CC2)cc1 [Compound 70] |
| > 500 nM | O=S(=O)(c1ccccc1)c1cnc2ccccc2c1N1CCN(c2cccc(Cl)c2)CC1 [Compound 71] |
| > 500 nM | O=S(=O)(c1ccc(Cl)cc1)c1cnc2ccccc2c1N1CCN(c2ccc(F)cc2)CC1 [Compound 72] |
| > 500 nM | Cc1ccc(S(=O)(=O)c2cnc3ccc(C)cc3c2N2CCN(c3ccccc3F)CC2)cc1 [Compound 73] |
| > 500 nM | COc1ccccc1N1CCN(c2c(S(=O)(=O)c3ccc(C)cc3)cnc3ccccc23)CC1 [Compound 74] |
| > 500 nM | COc1ccc(N2CCN(c3c(S(=O)(=O)c4ccc(Cl)cc4)cnc4ccc(C)cc34)CC2)cc1 [Compound 75] |
| 200 to 500 nM | CCN(CC)c1c(S(=O)(=O)c2ccc(C)cc2)cnc2ccccc12 [Compound 76] |
| < 200 nM | Cc1ccc(S(=O)(=O)c2cnc3ccccc3c2NCc2ccccc2)cc1 [Compound 77] |
| > 500 nM | COc1ccc2ncc(S(=O)(=O)c3ccc(Cl)cc3)c(NCc3ccccc3)c2c1 [Compound 78] |
| 200 to 500 nM | O=S(=O)(c1ccc(Cl)cc1)c1cnc2ccccc2c1N1CCN(Cc2ccccc2)CC1 [Compound 79] |

Second part, the molecule before the results:

| SMILES | Ki |
| --- | --- |
| Cc1ccc(S(=O)(=O)c2cnc3ccccc3c2N2CCOCC2)cc1C [Compound 1, 3-(3,4-Dimethyl-benzenesulfonyl)-4-(morpholin-4-yl)-quinoline] | < 200 nM |
| Cc1ccc(S(=O)(=O)c2cnc3ccccc3c2N2CCC(C)CC2)cc1 [Compound 2, 3-(4-Methyl-benzenesulfonyl)-4-(4-methyl-piperidin-1-yl)-quinoline] | < 200 nM |
| Cc1ccc(S(=O)(=O)c2cnc3ccccc3c2N2CCC(C)CC2)cc1C [Compound 3, 3-(3,4-Dimethyl-benzenesulfonyl)-4-(4-methyl-piperidin-1-yl)-quinoline] | < 200 nM |
| Cc1ccc(S(=O)(=O)c2cnc3ccccc3c2N2CCCC(C)C2)cc1 (stereo not drawn) [Compound 4, 3-(4-Methyl-benzenesulfonyl)-4-(3-methyl-piperidin-1-yl)-quinoline] | < 200 nM |
| O=S(=O)(c1ccccc1)c1cnc2ccccc2c1N1CCCCC1 [Compound 5] | 200 to 500 nM |
| Cc1ccc(S(=O)(=O)c2cnc3ccccc3c2N2CCCCC2)cc1 [Compound 6] | < 200 nM |
| COc1cc2ncc(S(=O)(=O)c3ccccc3)c(N3CCOCC3)c2cc1OC [Compound 7] | > 500 nM |
| O=S(=O)(c1ccc(N2CCCCC2)cc1)c1cnc2ccc(Cl)cc2c1N1CCCCC1 [Compound 8] | > 500 nM |
| CCN(CC)c1c(S(=O)(=O)c2ccc(Cl)cc2)cnc2ccc(C)cc12 [Compound 9] | < 200 nM |
| CCN1CCN(c2c(S(=O)(=O)c3ccc(F)cc3)cnc3ccc(Cl)cc23)CC1 [Compound 10] | > 500 nM |
| COc1ccc(S(=O)(=O)c2cnc3ccc(Cl)cc3c2NCc2ccccc2)cc1 [Compound 11] | > 500 nM |
| CCc1ccc2ncc(S(=O)(=O)c3ccc(OC)cc3)c(N(CC)CC)c2c1 [Compound 12] | > 500 nM |
| O=S(=O)(c1ccccc1)c1cnc2ccc(F)cc2c1N1CCN(Cc2ccccc2)CC1 [Compound 13] | > 500 nM |
| Cc1ccc(S(=O)(=O)c2cnc3ccc(F)cc3c2N2CCC(C)CC2)cc1 [Compound 14] | 200 to 500 nM |
| COc1ccc2ncc(S(=O)(=O)c3ccc(Cl)cc3)c(N3CCC(C)CC3)c2c1 [Compound 15] | > 500 nM |
| CCOc1ccc2ncc(S(=O)(=O)c3ccc(Cl)cc3)c(NCc3ccc(F)cc3)c2c1 [Compound 16] | < 200 nM |
| CCN(CC)c1c(S(=O)(=O)c2ccc(Cl)cc2)cnc2cc3c(cc12)OCCO3 [Compound 18] | > 500 nM |
| CCN1CCN(c2c(S(=O)(=O)c3ccc(C)c(C)c3)cnc3cc4c(cc23)OCO4)CC1 [Compound 19] | > 500 nM |

| SMILES | Ki |
| --- | --- |
| O=S(=O)(c1ccccc1)c1cnc2ccccc2c1Nc1ccccc1 [Compound 20] | > 500 nM |
| Cc1ccc(Nc2c(S(=O)(=O)c3ccc(C)cc3)cnc3ccccc23)cc1 [Compound 21] | > 500 nM |
| Cc1ccc(Nc2c(S(=O)(=O)c3ccc(Cl)cc3)cnc3ccccc23)cc1C [Compound 22] | > 500 nM |
| COc1cccc(Nc2c(S(=O)(=O)c3ccccc3)cnc3ccc(OC)cc23)c1 [Compound 23] | > 500 nM |
| COc1ccc(Nc2c(S(=O)(=O)c3ccc(C)cc3)cnc3ccccc23)cc1OC [Compound 24] | > 500 nM |
| Cc1ccc(S(=O)(=O)c2cnc3ccccc3c2Nc2ccc(F)cc2)cc1 [Compound 25] | > 500 nM |
| Cc1ccc(S(=O)(=O)c2cnc3ccc(C)cc3c2Nc2ccc(Cl)cc2)cc1 [Compound 26] | > 500 nM |
| Cc1ccc(S(=O)(=O)c2cnc3ccccc3c2Nc2ccc3c(c2)OCCO3)cc1 [Compound 27] | > 500 nM |
| Cc1ccc(S(=O)(=O)c2cnc3ccc(C)cc3c2NCc2ccccc2)cc1 [Compound 28] | > 500 nM |
| Cc1ccc(S(=O)(=O)c2cnc3ccc(C)cc3c2NCc2ccc(F)cc2)cc1 [Compound 29] | > 500 nM |
| CCc1ccc2ncc(S(=O)(=O)c3ccc(Cl)cc3)c(NCc3ccc(C)cc3)c2c1 [Compound 30] | > 500 nM |
| COc1ccc(CNc2c(S(=O)(=O)c3ccc(Cl)cc3)cnc3ccccc23)cc1 [Compound 31] | > 500 nM |
| Cc1ccc(S(=O)(=O)c2cnc3ccccc3c2N2CCCCCC2)cc1 [Compound 32] | < 200 nM |
| Cc1ccc(S(=O)(=O)c2cnc3ccc(F)cc3c2N2CCCCCC2)cc1 [Compound 33] | > 500 nM |
| O=S(=O)(c1ccc(Cl)cc1)c1cnc2ccccc2c1N1CCCCCC1 [Compound 34] | 200 to 500 nM |
| CCc1ccc2ncc(S(=O)(=O)c3ccccc3)c(N3CCCC3)c2c1 [Compound 35] | > 500 nM |
| CCOc1ccc2ncc(S(=O)(=O)c3ccccc3)c(N3CCCC3)c2c1 [Compound 36] | > 500 nM |
| O=S(=O)(c1ccccc1)c1cnc2ccc(Cl)cc2c1N1CCCC1 [Compound 37] | > 500 nM |

Source: patent US20090270371A1, “QUINOLINE DERIVATIVES USEFUL IN THE TREATMENT OF MGLUR5 RECEPTOR-MEDIATED DISORDERS” (priority 2005, published 2009)
